# PubChem BioAssay AID272 (DTP/NCI, 2004)
# Several values for one entry are separate records, joined by “and”; a condition that tells them apart may be missing. Identical values can stand only once. Inconclusive results are not listed.
# System: Lewis lung carcinoma i.m., BDF1 mice, T/C %
# Experiment: NCI In Vivo Anticancer Drug Screen. Data for tumor model Lewis Lung Carcinoma (intramuscular) in B6D2F1 (BDF1) mice
# Outline: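 Value is the ratio of a treated-group measurement (T) to the matching vehicle-control measurement (C), using either survival or tumour size in mice bearing transplanted tumours.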
structure (smiles),measurement,setting,value
Nc1ncnc2c1ncn2Cc1ccccc1,T/C,"endpoint: mean tumor weight (est.), dose: 12.5 mg/kg/injection, schedule: Q01DX011 (ip), vehicle: saline with Tween-80, higher = larger tumour",101 % of control
same,T/C,"endpoint: mean tumor weight (est.), dose: 25.0 mg/kg/injection, schedule: Q01DX011 (ip), vehicle: saline with Tween-80, higher = larger tumour",102 % of control
same,T/C,"endpoint: mean tumor weight (est.), dose: 50.0 mg/kg/injection, schedule: Q01DX011 (ip), vehicle: saline with Tween-80, higher = larger tumour",76 % of control
same,T/C,"endpoint: mean tumor weight (est.), dose: 100.0 mg/kg/injection, schedule: Q01DX011 (ip), vehicle: saline with Tween-80, higher = larger tumour",67 % of control
same,T/C,"endpoint: median survival time, dose: 12.5 mg/kg/injection, schedule: Q01DX011 (ip), vehicle: saline with Tween-80, higher = longer survival",89 % of control
same,T/C,"endpoint: median survival time, dose: 25.0 mg/kg/injection, schedule: Q01DX011 (ip), vehicle: saline with Tween-80, higher = longer survival",100 % of control
same,T/C,"endpoint: median survival time, dose: 50.0 mg/kg/injection, schedule: Q01DX011 (ip), vehicle: saline with Tween-80, higher = longer survival",93 % of control
same,T/C,"endpoint: median survival time, dose: 100.0 mg/kg/injection, schedule: Q01DX011 (ip), vehicle: saline with Tween-80, higher = longer survival",97 % of control
Cc1cc(/C=C/c2cc[n+](C)c3ccccc23)c(O)c2ncccc12,T/C,"endpoint: mean tumor weight, dose: 6.0 mg/kg/injection, schedule: Q01DX011 (ip), vehicle: saline, higher = larger tumour",76 % of control
same,T/C,"endpoint: median survival time, dose: 6.0 mg/kg/injection, schedule: Q01DX011 (ip), vehicle: saline, higher = longer survival",102 % of control
Nc1nc(SCc2ccccc2)c2[nH]cnc2n1,T/C,"endpoint: mean tumor weight (est.), dose: 0.39 mg/kg/injection, schedule: Q01DX011 (ip), vehicle: saline, higher = larger tumour",86 % of control
same,T/C,"endpoint: mean tumor weight (est.), dose: 0.78 mg/kg/injection, schedule: Q01DX011 (ip), vehicle: saline, higher = larger tumour",91 % of control
same,T/C,"endpoint: mean tumor weight (est.), dose: 1.56 mg/kg/injection, schedule: Q01DX011 (ip), vehicle: saline, higher = larger tumour",78 % of control
same,T/C,"endpoint: mean tumor weight (est.), dose: 6.25 mg/kg/injection, schedule: Q01DX011 (ip), vehicle: saline, higher = larger tumour",70 % of control
same,T/C,"endpoint: mean tumor weight, dose: 0.78 mg/kg/injection, schedule: Q01DX011 (ip), vehicle: Klucel (hydroxypropylcellulose) (HPC), higher = larger tumour",105 % of control
same,T/C,"endpoint: mean tumor weight, dose: 1.56 mg/kg/injection, schedule: Q01DX011 (ip), vehicle: Klucel (hydroxypropylcellulose) (HPC), higher = larger tumour",92 % of control
same,T/C,"endpoint: mean tumor weight, dose: 3.12 mg/kg/injection, schedule: Q01DX011 (ip), vehicle: Klucel (hydroxypropylcellulose) (HPC), higher = larger tumour",87 % of control
same,T/C,"endpoint: median survival time, dose: 0.39 mg/kg/injection, schedule: Q01DX011 (ip), vehicle: saline, higher = longer survival",103 % of control
same,T/C,"endpoint: median survival time, dose: 1.56 mg/kg/injection, schedule: Q01DX011 (ip), vehicle: Klucel (hydroxypropylcellulose) (HPC), higher = longer survival",102 % of control
same,T/C,"endpoint: median survival time, dose: 1.56 mg/kg/injection, schedule: Q01DX011 (ip), vehicle: saline, higher = longer survival",96 % of control
same,T/C,"endpoint: median survival time, dose: 6.25 mg/kg/injection, schedule: Q01DX011 (ip), vehicle: saline, higher = longer survival",111 % of control
CC1=C2C(=CC(C)(C)[C@@H]2O)C(=O)[C@](C)(O)C12CC2,T/C,"endpoint: mean tumor weight, dose: 0.1 mg/kg/injection, schedule: Q01DX011 (ip), vehicle: other, higher = larger tumour",95 % of control
same,T/C,"endpoint: mean tumor weight, dose: 0.2 mg/kg/injection, schedule: Q01DX011 (ip), vehicle: other, higher = larger tumour",84 % of control
same,T/C,"endpoint: mean tumor weight, dose: 0.4 mg/kg/injection, schedule: Q01DX011 (ip), vehicle: other, higher = larger tumour",21 % of control
CN(C)C(=S)S,T/C,"endpoint: mean tumor weight, dose: 125.0 mg/kg/injection, schedule: Q01DX011 (ip), vehicle: saline, higher = larger tumour",58 % of control and 59 % of control
same,T/C,"endpoint: mean tumor weight, dose: 250.0 mg/kg/injection, schedule: Q01DX011 (ip), vehicle: saline, higher = larger tumour",57 % of control
same,T/C,"endpoint: median survival time, dose: 125.0 mg/kg/injection, schedule: Q01DX011 (ip), vehicle: saline, higher = longer survival",102 % of control
C=C(C(=O)OC1CC2CCC(C1)N2C)c1ccccc1 (stereo not given),T/C,"endpoint: median survival time, dose: 7.5 mg/kg/injection, schedule: Q01DX011 (ip), vehicle: saline, higher = longer survival",119 % of control
C(=C\c1ccccc1)/C[P+](c1ccccc1)(c1ccccc1)c1ccccc1,T/C,"endpoint: mean tumor weight (est.), dose: 0.6 mg/kg/injection, schedule: Q01DX011 (ip), vehicle: saline, higher = larger tumour",101 % of control
same,T/C,"endpoint: mean tumor weight (est.), dose: 1.25 mg/kg/injection, schedule: Q01DX011 (ip), vehicle: saline, higher = larger tumour",100 % of control
same,T/C,"endpoint: mean tumor weight (est.), dose: 2.5 mg/kg/injection, schedule: Q01DX011 (ip), vehicle: saline, higher = larger tumour",105 % of control
same,T/C,"endpoint: mean tumor weight (est.), dose: 5.0 mg/kg/injection, schedule: Q01DX011 (ip), vehicle: saline, higher = larger tumour",93 % of control
same,T/C,"endpoint: median survival time, dose: 0.6 mg/kg/injection, schedule: Q01DX011 (ip), vehicle: saline, higher = longer survival",98 % of control
same,T/C,"endpoint: median survival time, dose: 1.25 mg/kg/injection, schedule: Q01DX011 (ip), vehicle: saline, higher = longer survival",107 % of control
same,T/C,"endpoint: median survival time, dose: 2.5 mg/kg/injection, schedule: Q01DX011 (ip), vehicle: saline, higher = longer survival",98 % of control
same,T/C,"endpoint: median survival time, dose: 5.0 mg/kg/injection, schedule: Q01DX011 (ip), vehicle: saline, higher = longer survival",100 % of control
COC12C(COC(N)=O)C3=C(C(=O)C(C)=C(N)C3=O)N1CC1C2N1C (stereo not given),T/C,"endpoint: median survival time, dose: 2.0 mg/kg/injection, schedule: Q01DX009 (ip), vehicle: Klucel (hydroxypropylcellulose) (HPC), higher = longer survival",92 % of control and 105 % of control
same,T/C,"endpoint: median survival time, dose: 2.0 mg/kg/injection, schedule: Q01DX011 (ip), vehicle: saline + alcohol, higher = longer survival",101 % of control and 111 % of control
same,T/C,"endpoint: median survival time, dose: 4.0 mg/kg/injection, schedule: Q01DX009 (ip), vehicle: Klucel (hydroxypropylcellulose) (HPC), higher = longer survival",100 % of control and 106 % of control
same,T/C,"endpoint: median survival time, dose: 4.0 mg/kg/injection, schedule: Q01DX011 (ip), vehicle: saline + alcohol, higher = longer survival",105 % of control
